Here are results for 5 compounds from ChEMBL document CHEMBL3046145, “Computational and experimental evaluation of ornithine derivatives as ornithine decarboxylase inhibitors” (Med Chem Res, 2009).

The target of data set [1] is T1, Ornithine decarboxylase (Homo sapiens, UniProt P11926).
T1 sequence (P11926 whole entry): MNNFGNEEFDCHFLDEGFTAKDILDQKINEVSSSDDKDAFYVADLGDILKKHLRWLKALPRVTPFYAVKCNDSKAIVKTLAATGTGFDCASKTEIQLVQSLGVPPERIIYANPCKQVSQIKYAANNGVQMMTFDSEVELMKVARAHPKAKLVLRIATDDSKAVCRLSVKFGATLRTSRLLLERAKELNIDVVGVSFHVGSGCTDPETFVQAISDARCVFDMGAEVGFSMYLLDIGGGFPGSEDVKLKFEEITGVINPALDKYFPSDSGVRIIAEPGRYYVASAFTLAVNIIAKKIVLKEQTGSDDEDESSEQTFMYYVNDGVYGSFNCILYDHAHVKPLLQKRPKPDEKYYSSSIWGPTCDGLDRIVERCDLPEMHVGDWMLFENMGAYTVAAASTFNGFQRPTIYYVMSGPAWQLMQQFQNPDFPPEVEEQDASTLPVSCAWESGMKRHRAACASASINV
Put plainly: Binding affinity to ODC (unknown origin).

For data set [2], the species on record is Rattus norvegicus. Put plainly: Toxicity in Rattus norvegicus (rat). The conditions noted are these: in vivo. In kind it is organism-based.
The target of data set [3] is T2, Ornithine decarboxylase (Rattus norvegicus) (UniProt P09057).
T2 sequence (whole entry): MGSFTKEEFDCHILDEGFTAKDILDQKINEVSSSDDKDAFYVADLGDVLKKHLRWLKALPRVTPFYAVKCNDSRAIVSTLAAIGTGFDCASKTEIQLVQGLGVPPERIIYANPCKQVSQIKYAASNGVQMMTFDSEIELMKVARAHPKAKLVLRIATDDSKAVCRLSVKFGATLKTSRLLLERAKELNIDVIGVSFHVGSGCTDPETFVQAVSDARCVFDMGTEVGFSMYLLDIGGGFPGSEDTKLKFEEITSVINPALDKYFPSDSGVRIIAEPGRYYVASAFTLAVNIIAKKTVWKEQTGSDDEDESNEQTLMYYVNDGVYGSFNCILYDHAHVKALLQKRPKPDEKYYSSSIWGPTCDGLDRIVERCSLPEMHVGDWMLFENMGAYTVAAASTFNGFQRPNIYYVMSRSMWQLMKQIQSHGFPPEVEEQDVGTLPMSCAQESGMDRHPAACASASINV
Put plainly: Inhibition of Rattus norvegicus Wistar (rat) rat liver ODC assessed as inhibition of 14CO2 release from L-[14C]ornithine.

A short description of data set [4]: Toxicity in ip dosed Mus musculus CD1 (mouse) assessed as mortality. In kind it is organism-based. The conditions noted are these: in vivo.

Calls of active or inactive are those of the source. No cut-off for these calls is given here.

For `NCCC[C@@](N)(CF)C(=O)O`, the affinity in data set [1], expressed as Kd, was 75 µM. This lies in the double-digit micromolar range.

With `NCCC[C@H](NN)C(=O)O` [ALPHA-HYDRAZINE ORNITHINE], in data set [1], binding was put at a Kd of 0.5 µM. This Kd is about 150-fold lower than that of the compound before.

As for `NCCC[C@](N)(C(=O)O)C(F)F` [EFLORNITHINE, (S)-], in data set [2], the LD50 was 300 µg.

With `N[C@@H](CCCNC(=O)CCl)C(=O)O`, in data set [3], the inhibition result was “Active”. Also, the LD50 in data set [4] worked out at 381 mg/kg. Further, the affinity in data set [1], expressed as Kd, was 2500 µM.

For the compound `NCCC[C@H](N)C(=O)O` [ORNITHINE], in data set [1], the Kd (usually the equilibrium constant for the complex coming apart) was 250 µM.
